Key:
ASPC1 = test: MTT growth inhibition, pancreatic cell line ASPC1; assay type: cell-based; details: Homo sapiens, ASPC1; MTT assay, 96 h treatment; average of three independent experiments
Procedure: (§1) Eight of these analogs 6d, 6h, 6n, 6g, 7b, 7d, 8g, and 8h were tested for their cytotoxicity in seven pancreatic cell lines ASPC1, Panc1, Panc203, Panc430, Pane 1005, MiaPaca2, and HS766T using MTT assay. Cells were trypsinized, seeded at 5×10^3 cells/well in 96-well plate and allowed to grow for 24 hours before the treatment with exponential increasing concentrations of drugs in the presence of 10% FBS. After a 96-hours period of treatment, 20 μl of MTT solution (5 mg/ml in PBS) were added to each well, and the plates were then incubated for 3 hours at 37° C. Medium was then replaced with 100 μl of DMSO per well. Plates were shaken and the optical density was measured at 570 nm using a multiwell plate reader (Bio-Rad, Model 550, Bio-Rad Inc., Hercules, Calif.). Each experiment was performed in triplicate for each drug concentration and was carried out independently at least 3 times. The IC50 value was defined as the concentration needed for a 50% reduction in the absorbance calculated based on the survival curves. Response to drug treatment was assessed by standardizing treatment groups to untreated controls. Compounds activity was compared with compound 1.
(§2) Table 2 (Growth Inhibition of Pancreatic Cancer Cell Lines by BPU and BPTU Analogues (IC50) a) compares the cytotoxicity of a series of new derivatives against a panel of seven pancreatic cancer cell lines, as determined by MTT assay. See, Mosmann, T., J. Immunol. Methods 65:55-63 (1983).

Panc430 = test: MTT growth inhibition, pancreatic cell line Panc430; assay type: cell-based; details: for IC50: MTT assay, 96 h treatment, average of three independent experiments
Procedure: as §1, §2

Panc1005 = test: MTT growth inhibition, pancreatic cell line Panc1005; assay type: cell-based; details: Homo sapiens, Panc1005; MTT assay, 96 h treatment; average of three independent experiments
Procedure: as §1, §2

HS766 = test: MTT growth inhibition, pancreatic cell line HS766; assay type: cell-based; details: Homo sapiens, Hs 766; MTT assay, 96 h treatment; average of three independent experiments
Procedure: as §1, §2

CWR22R = test: MTT growth inhibition, prostate cancer cell line CWR22R; assay type: cell-based, human; details: for IC50: Homo sapiens, 22Rv1, MTT assay, average of three independent experiments
LAPC-4 = test: MTT growth inhibition, prostate cancer cell line LAPC-4; assay type: cell-based, human; details: for IC50: Homo sapiens, LAPC4, MTT assay, average of three independent experiments
Procedure: (§3) This MTT assay was carried using human prostate cancer cell lines CWR22R, LAPC-4 and LnCap using Promega cell titer 96 nonradioactive cell proliferation kits. Cells were trypsinized and centrifuged at 1000 rpm for 5 minutes and the supernatant was aspirated. Cells were resuspended with HBSS to a concentration of 10^6/ml. Cell suspension was diluted in serum containing medium to plate 2000 cells/well/0.2 ml. Cell suspension was transferred to sterile solution basin. Cells were plated using multichannel pipette set at 200 μl and incubated overnight for attachment. One plate was prepared for day 0 MTT assay as follows: 100 μl of media was removed from each well using multichannel pipette and 15 μl of MTT reagent was added. Plates were incubated at 37° C. for 4 hrs. […] of STOP solution was added to each well and incubated at room temperature for 1 hour. Absorbance was measured at 570 and 650 nm on plate reader. All the media from the remaining plates were carefully removed and the cells were treated with the media containing drug. MTT assays were done on days 0, 3, 5 and 7. In the preliminary screening […] BPU sulfur analogs 6l, 6h, 6n, 7d and 8h were screened and their activity was compared with compound 1.
Compounds with significant inhibitory activity in pancreatic cancer cells were further evaluated against prostate cancer cell lines in the MTT assay, (Mosmann, T., J. Immunol. Methods 65:55-63 (1983)) and the results were compared to those for compound 1 (Table 3).

tubulin = test: Inhibition of tubulin polymerization; assay type: biochemical; details: for IC50: Tubulin was at 10 μM, read-out: tubulin IC50 ± SD (inhibition of tubulin polymerization)
Procedure: Briefly, tubulin polymerization was followed turbidimetrically at 350 nm in Beckman model DU7400 and DU7500 recording spectrophotometers equipped with electronic temperature controllers. […] Samples were pre-incubated for 15 min at 30° C. and chilled on ice. GTP (final concentration, 0.4 mmol/L) was added to each reaction mixture, and these were placed in cuvettes held at 0° C. Baselines were established, the temperature was raised to 30° C.

[1] = system: 11 pancreatic cancer cell line panel; test: Clonogenic growth, pancreatic cancer cell line panel; assay type: cell-based; details: doses above 0.5 μmol/L
Procedure: The cell lines ASPC1, MiaPaca2, HS766T, and L36PL were obtained from the American Tissue Culture Collection and are derived from pancreas carcinomas. The cell lines Panc1, Panc203, and Panc1005 are low-passage pancreas cell lines. The cell lines XPA3 and XPA4 are lowpassage. The cell lines E3LZ10 and E3JD13 are lowpassage pancreas cell lines. For clonogenic assessment, 500 cells per well were seeded in six-well plates with enriched RPMI (10% fetal bovine serum+1% penicillin/streptomycin) and exposed to increasing drug concentrations for 96 h. After this, the drug was removed, and the cells were allowed to grow for 14 days before manual colony counting. Each experiment was done in duplicate for each drug concentration and was carried out independently at least thrice. For MAPT protein and mRNA expression analysis, the cell lines were grown in six-well plates with enriched RPMI. When the cells reached a 60% to 70% confluence, they were washed twice with chilled PBS; lysis buffer was added to the plates; and the cells were scraped for protein extraction. An identical experimental set was lysed with RLT (Qiagen) for mRNA extraction.
Clonogenic growth was impaired at concentrations between 0.01 and 0.5 μmol/L (FIG. 35B), with no colony formation at higher doses in 9 of the 11 cell lines. […] Two isoforms of MAPT protein were detected (45 and 65 kDa). […]

[2] = system: seven pancreatic cell lines; test: MTT cytotoxicity, panel of seven pancreatic cancer cell lines; assay type: cell-based; details: seven pancreatic cell lines
Procedure: as §1, §2

[3] = system: prostate cancer cell lines CWR22R, LAPC-4 and LnCap; test: MTT growth inhibition, prostate cancer cell line panel; assay type: cell-based, human; details: for potency relative to compound 1, prostate cell lines (preliminary screening): CWR22R, LAPC-4, LnCap
Procedure: as §3

SMILES | IC50 (ASPC1) [µM] | IC50 (Panc430) [µM] | increase in activity compared to 7c (Panc430; Panc430) [fold] | IC50 (Panc1005) [µM] | IC50 (HS766) [µM] | IC50 (CWR22R) [µM] | IC50 (LAPC-4) [µM] | increase in activity compared to 7c (LAPC-4; LAPC-4) [fold] | IC50 (tubulin) [µM] | cell lines with no colony formation at higher doses [1] | potency relative to compound 1, pancreatic cell lines [2] [time] | potency relative to compound 1, prostate cell lines (preliminary screening) [3] [times] | increase in potency over 6m (Panc430; Panc430) [fold] | increase in potency over 6m (CWR22R; CWR22R) [fold] | potency as inhibitor of tubulin assembly relative to 7d (tubulin) | IC50 ([3]; Homo sapiens, all prostate cell lines, read-out: IC50 against all prostate cell lines) [µM]
Nc1ccccc1C(=O)NC(=O)Nc1ccc(Sc2ncc(Br)cn2)cc1 [Compound 7d] | 0.45 | 0.2 | > 50 | 10 | 0.7 | 0.5 | 0.1 | 7 | > 40 | 9 of the 11 | 20 | 20 | – | – | – | –
O=C(NC(=O)c1ccccc1[N+](=O)[O-])Nc1ccc(Sc2ncc(Br)cn2)cc1 [Compound 6n, 1-[4-(5-Bromopyrimidin-2-ylsulfanyl)phenyl]-3-(2-nitrobenzoyl)-urea] | 1 | 0.09 | – | 10 | 0.088 | 0.05 | 0.05 | – | 2.1 | 9 of the 11 | 20 | 20 | 111 | 100 | twice as potent | 0.05

Source: patent US20090099218A1, “SYNTHESIS OF NOVEL TUBULIN POLYMERIZATION INHIBITORS: BENZOYLPHENYLUREA (BPU) SULFUR ANALOGS” (priority 2007, published 2009)
